Data from PMC8802628, “Selective activation of PFKL suppresses the phagocytic oxidative burst” (Cell, 2021).

Legend:
[1] = target: T1, human PFKM (Homo sapiens, UniProt P08237); experiment: Recombinant PFKM activity assay; assay type: biochemical; details: for activation of PFKM: at concentrations up to 100 μM
T1 construct: made in house; host or cells: Sf9 insect cells (baculovirus)
T1 sequence (P08237 1-780): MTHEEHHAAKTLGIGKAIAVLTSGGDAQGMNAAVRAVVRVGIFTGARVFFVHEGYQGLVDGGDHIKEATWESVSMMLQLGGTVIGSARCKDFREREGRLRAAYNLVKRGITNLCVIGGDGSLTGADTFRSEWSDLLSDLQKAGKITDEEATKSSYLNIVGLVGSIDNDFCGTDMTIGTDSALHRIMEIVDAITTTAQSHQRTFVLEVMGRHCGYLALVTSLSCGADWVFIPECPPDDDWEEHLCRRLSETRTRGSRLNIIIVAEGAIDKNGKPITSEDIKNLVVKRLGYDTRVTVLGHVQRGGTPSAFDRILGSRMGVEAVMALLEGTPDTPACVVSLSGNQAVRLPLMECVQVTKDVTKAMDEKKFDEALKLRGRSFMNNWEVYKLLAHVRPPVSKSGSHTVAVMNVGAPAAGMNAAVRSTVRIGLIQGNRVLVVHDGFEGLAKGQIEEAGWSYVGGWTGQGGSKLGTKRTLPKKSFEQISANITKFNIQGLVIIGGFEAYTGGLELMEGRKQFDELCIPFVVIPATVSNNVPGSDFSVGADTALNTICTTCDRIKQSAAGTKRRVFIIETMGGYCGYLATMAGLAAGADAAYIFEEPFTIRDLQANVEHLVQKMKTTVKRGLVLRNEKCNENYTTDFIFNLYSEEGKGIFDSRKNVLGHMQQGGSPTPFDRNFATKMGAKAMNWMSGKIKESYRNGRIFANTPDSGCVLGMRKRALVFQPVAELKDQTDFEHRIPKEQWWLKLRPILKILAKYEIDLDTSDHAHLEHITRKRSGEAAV
Description: (§1) Recombinant N-terminal His-tagged human PFKL (NP_002617), PFKM (NP_000280), and PFKP (NM_002627.4) were generated as described ([Webb et al., 2015], [2017]). Point mutants of PFK1 were generated using the QuikChange Lightning kit (Aligent).
(§2) His-tagged PFK1 was expressed and purified as described with slight modifications ([Webb et al., 2015], [2017]). Briefly, baculovirus was generated using the Bac-to-Bac Expression system (Invitrogen). PFK1 was expressed in 2-5 × 10^6 sf9 cells at a multiplicity of infection of two for 48 h. Cells were lysed in 20 mM HEPES, pH 7.5, 80 mM potassium phosphate, 1 mM 2-mercapentoethanol, 10% glycerol, 10 mM imidazole, and EDTA-free Protease Inhibitor Cocktail (Abcam) with a Dounce homogenizer. The soluble lysate was incubated with HisPur cobalt resin (ThermoFisher Scientific). The resin was washed with 5 bead volumes lysis buffer, 10 bead volumes lysis buffer containing 2 M NaCl, and 5 further bead volumes lysis buffer. PFK1 was eluted in lysis buffer containing 100 mM imidazole. Fractions containing protein were pooled, passed over a desalting column equilibrated in freezing buffer [20 mM HEPES pH 7.5, 1 mM DTT, 500 μM ammonium sulfate, 5% glycerol, 1 mM ATP, and 100 μM EDTA] and concentrated using an Amicon Ultracel-30K Centrifugal Filter Unit (MilliporeSigma). Protein was quantified using a Bradford Protein Assay kit (ThermoFisher Scientific), and aliquotes frozen in liquid nitrogen for storage at −80°C.
PFK1 activity was determined using the rate of FBP production via an auxiliary enzyme assay adapted to a 96-well format ([Brüser et al., 2012]; [Webb et al., 2015]). The auxiliary enzymes aldolase, triosephosphate isomerase, and glycerol phosphate dehydrogenase were purchased from MilliporeSigma as ammonium sulfate slurries and desalted using an Amicon Ultracel-10K Centrifugal Filter Unit. For assays containing FBP, the rate of ADP production was determined using the auxiliary enzymes pyruvate kinase (PK) and lactate dehydrogenase (LDH) (MilliporeSigma) in a buffer containing 250 μM phosphoenolpyruvic acid, […] NADH, 50 mM HEPES pH 7.5, 100 mM KCl, 1 mM DTT, and effector concentrations as described in the text. The temperature was equilibrated to 25°C for 5 min before initiating the reaction 10 mM MgCl2. Absorbance at 340 nm was measured using a Varioskan LUX Multimode microplate reader (ThermoFisher). Kinetic parameters were generated by nonlinear regression analysis using Prism (GraphPad Software) and are the mean of a minimum of three measurements from two independent preparations of protein. One unit of activity was defined as the amount of enzyme that catalyzed the formation of 1 μmol of fructose 1,6-bisphosphate per min at 25°C. […]

[2] = target: T2, PFKL(K315R) (PFKL−pocket) (Homo sapiens, UniProt P17858, K315R); experiment: Recombinant PFKL−pocket activity assay; assay type: biochemical; details: for EC50: pH 7.5, 3.1 mM ATP, 4 mM F6P, mean ± SEM, read-out: EC50, activation of PFKL−pocket
T2 construct: made in house; host or cells: Sf9 insect cells (baculovirus)
T2 sequence (P17858 1-780 K315R): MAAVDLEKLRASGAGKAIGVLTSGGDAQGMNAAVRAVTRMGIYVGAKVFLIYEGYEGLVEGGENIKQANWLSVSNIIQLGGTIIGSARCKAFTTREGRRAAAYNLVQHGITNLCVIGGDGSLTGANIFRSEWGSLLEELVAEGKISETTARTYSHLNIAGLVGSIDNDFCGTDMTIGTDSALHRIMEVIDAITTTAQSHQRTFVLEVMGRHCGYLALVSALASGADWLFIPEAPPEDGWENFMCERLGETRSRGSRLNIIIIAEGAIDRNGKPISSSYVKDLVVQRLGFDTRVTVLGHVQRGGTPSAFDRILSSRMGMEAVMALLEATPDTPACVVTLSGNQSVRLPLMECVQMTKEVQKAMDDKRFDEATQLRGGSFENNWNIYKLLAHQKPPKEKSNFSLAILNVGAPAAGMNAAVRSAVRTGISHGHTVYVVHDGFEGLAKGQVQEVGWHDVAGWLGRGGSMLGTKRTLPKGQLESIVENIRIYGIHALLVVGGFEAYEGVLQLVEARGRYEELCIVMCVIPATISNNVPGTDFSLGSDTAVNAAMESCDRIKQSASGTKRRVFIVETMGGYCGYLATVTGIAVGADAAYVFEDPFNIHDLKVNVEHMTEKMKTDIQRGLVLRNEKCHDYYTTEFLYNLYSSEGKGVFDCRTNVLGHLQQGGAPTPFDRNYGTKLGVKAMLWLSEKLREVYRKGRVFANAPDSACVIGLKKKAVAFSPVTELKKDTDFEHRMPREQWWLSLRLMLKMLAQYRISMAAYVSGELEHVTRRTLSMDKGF
Description: as §1, §2
PFK1 activity was determined using the rate of FBP production via an auxiliary enzyme assay adapted to a 96-well format ([Brüser et al., 2012]; [Webb et al., 2015]). The auxiliary enzymes aldolase, triosephosphate isomerase, and glycerol phosphate dehydrogenase were purchased from MilliporeSigma as ammonium sulfate slurries and desalted using an Amicon Ultracel-10K Centrifugal Filter Unit. For assays containing FBP, the rate of ADP production was determined using the auxiliary enzymes pyruvate kinase (PK) and lactate dehydrogenase (LDH) (MilliporeSigma) in a buffer containing 250 μM phosphoenolpyruvic acid, […] NADH, 50 mM HEPES pH 7.5, 100 mM KCl, 1 mM DTT, and effector concentrations as described in the text. The temperature was equilibrated to 25°C for 5 min before initiating the reaction 10 mM MgCl2. Absorbance at 340 nm was measured using a Varioskan LUX Multimode microplate reader (ThermoFisher). Kinetic parameters were generated by nonlinear regression analysis using Prism (GraphPad Software) and are the mean of a minimum of three measurements from two independent preparations of protein. One unit of activity was defined as the amount of enzyme that catalyzed the formation of 1 μmol of fructose 1,6-bisphosphate per min at 25°C. Assays for PFKM were performed at pH 7.0 due to the pH-dependence of ATP inhibition ([Trivedi and Danforth, 1966]).

[3] = PFKM wild type, pH 7.0, 250 μM ATP
[4] = PFKL−pocket, pH 7.5, 225 μM ATP

## O=C(CO)[C@@H](O)[C@H](O)[C@H](O)COP(=O)(O)O [F6P, fructose 6-phosphate]
[1]; [3]
  Vmax,F6P: 19.14 ± 0.74 micromoles FBP per minute per milligram PFK1
  hF6P (Hill coefficient): 4.62 ± 1.38
[2]; [4]
  Vmax,F6P: 14.68 ± 0.98 micromoles FBP per minute per milligram PFK1
  hF6P (Hill coefficient): 3.26 ± 0.48

## COc1ccccc1-c1cc2n(n1)Cc1ccc(NC(C)=O)cc1OC2 [LDC7559, reference compound]
[1]
  activation of PFKM: failed to activate

## CC(=O)Nc1ccc2c(c1)OCc1cc(-c3ccccc3)nn1C2 [NA-5]
[2]
  fold change of EC50,NA-5 of PFKL−pocket versus wild-type PFKL: ~ 30 fold
  EC50: 615 ± 138 nM

## CC(=O)Nc1ccc2c(c1)OCc1cc(-c3ccccc3C#CCCCO)nn1C2 [NA-11]
[1]
  activation of PFKM: failed to activate
[2]
  EC50: 167 ± 27.8 nM
